Measurements: the NIST ThermoML archive (doi:10.1016/j.tca.2015.08.032)
Where “and” joins values, the source holds several entries; their conditions need not be identical. Equal values may be shown once.

Key:
[1] = for mass density / viscosity: 101.33 kPa, Liquid; for mass density: Pycnometric method; for Normal melting temperature: Crystal, DTA; for viscosity: Cone and plate viscometry
[2] = molar heat capacity at constant pressure; conditions: 101.33 kPa, Liquid, Small sample (50 mg) DSC

Cn1cc[n+](CC(CBr)N=[N+]=[N-])c1.[Br-] (stereo not given) [1-(2-azido-3-bromopropyl)-3-methyl-3H-imidazol-1-ium bromide]
Conditions	mass density [kg/m3]
[1], 298 K	1360

Conditions	Normal melting temperature [°C]
[1]	10

Cn1cc[n+](CC(Br)CN=[N+]=[N-])c1.N#C[N-]C#N (stereo not given)
Conditions	mass density [kg/m3]
[1], 298 K	1280

Conditions	Normal melting temperature [°C]
[1]	6

C=Cn1cc[n+](CC(C[n+]2ccn(C)c2)N=[N+]=[N-])c1.[Br-].[Br-] (stereo not given)
Conditions	mass density [kg/m3]
[1], 298 K	1560

Conditions	Normal melting temperature [°C]
[1]	23

Cn1cc[n+](CC(CBr)N=[N+]=[N-])c1.N#C[N-]C#N (stereo not given)
[1]
Conditions	mass density [kg/m3]	viscosity
298 K	1310	57.01 mPa·s and 56.9 mPa·s
299 K	–	53.28 mPa·s
300 K	–	49.6 mPa·s and 49.44 mPa·s
301 K	–	46.03 mPa·s
302 K	–	42 mPa·s and 42.05 mPa·s
303.1 K	–	38.84 mPa·s
304 K	–	35.9 mPa·s and 35.89 mPa·s
306 K	–	30.94 mPa·s
306.1 K	–	30.9 mPa·s
307.9 K	–	26.97 mPa·s and 26.9 mPa·s and 26.98 mPa·s
309.8 K	–	23.3 mPa·s
313.9 K	–	17.9 mPa·s
317.9 K	–	13.9 mPa·s
322 K	–	10.8 mPa·s
325.9 K	–	8.8 mPa·s
331.8 K	–	5.9 mPa·s
336 K	–	4.8 mPa·s
339.9 K	–	4.1 mPa·s
344 K	–	3.5 mPa·s
347.9 K	–	3.1 mPa·s
353 K	–	2.5 mPa·s
357.9 K	–	2.2 mPa·s
361.9 K	–	2 mPa·s

Conditions	Normal melting temperature [°C]
[1]	-2

C=Cn1cc[n+](CC(C[n+]2ccn(C)c2)N=[N+]=[N-])c1.N#C[N-]C#N.N#C[N-]C#N (stereo not given)
Conditions	mass density [kg/m3]	molar heat capacity at constant pressure [J/K/mol]	viscosity [mPa·s]
[1], 298 K	1490	–	83.9
[1], 298.9 K	–	–	66.3
[1], 300 K	–	–	58.4
[1], 300.9 K	–	–	53
[1], 303 K	–	–	45.8
[1], 307.9 K	–	–	35.6
[1], 312.9 K	–	–	29.9
[1], 317.9 K	–	–	26.2
[1], 322.9 K	–	–	23.4
[1], 327.9 K	–	–	20.8
[1], 332.9 K	–	–	18.7
[1], 337.9 K	–	–	17.1
[1], 342.9 K	–	–	16.4
[1], 347.9 K	–	–	15.8
[1], 353 K	–	–	15.2
[1], 357.9 K	–	–	14.6
[1], 362.9 K	–	–	14
[2], 298 K	–	400	–
[2], 303 K	–	409.7	–
[2], 323 K	–	452	–

Conditions	Normal melting temperature [°C]
[1]	19

Cn1cc[n+](CC(Br)CN=[N+]=[N-])c1.[Br-] (stereo not given) [1-(3-azido-2-bromopropyl)-3-methyl-3H-imidazol-1-ium bromide]
Conditions	mass density [kg/m3]
[1], 298 K	1340

Conditions	Normal melting temperature [°C]
[1]	17
